Reference: US20260041667A1 (priority 2021, published 2026)

Columns and labels:
[1] = test system: Sprague Dawley rats; test: 14-day repeat-dose intranasal toxicity and toxicokinetic study in rats (Study 700041); conditions: rat
[2] = test system: Beagle dogs; test: 14-day repeat-dose intranasal toxicity and toxicokinetic study in dogs (Study 62959); type: in vivo; conditions: dog
Method: Assessments of mortality, clinical signs, olfactory reflex, body weights, food consumption, ophthalmology, and electrocardiograms were performed.

[3] = target: hERG potassium channel current (IKr) (Homo sapiens, UniProt Q12809); conditions: Phase 1, 30 μM in protein free perfusate, n=3
Description: This assay is employed as a screen to assess potential risks for QT interval prolongation.

[4] = intranasal 5 mg/kg/day, Day 1, Female
[5] = intranasal 5 mg/kg/day, Day 1, Male
[6] = intranasal 5 mg/kg/day, Day 14, Female
[7] = intranasal 5 mg/kg/day, Day 14, Male
[8] = intranasal 20 mg/kg/day, Day 1, Female
[9] = intranasal 20 mg/kg/day, Day 1, Male
[10] = intranasal 20 mg/kg/day, Day 14, Female
[11] = intranasal 20 mg/kg/day, Day 14, Male
[12] = intranasal 75 mg/kg/day, Day 1, Female
[13] = intranasal 75 mg/kg/day, Day 1, Male
[14] = intranasal 75 mg/kg/day, Day 14, Female
[15] = intranasal 75 mg/kg/day, Day 14, Male
[16] = intranasal 0.4 mg/kg/day, Day 1, Female
[17] = intranasal 0.4 mg/kg/day, Day 1, Male
[18] = intranasal 0.4 mg/kg/day, Day 14, Female
[19] = intranasal 0.4 mg/kg/day, Day 14, Male
[20] = intranasal 0.8 mg/kg/day, Day 1, Male
[21] = intranasal 0.8 mg/kg/day, Day 14, Male

Sequence of hERG potassium channel current (IKr) (Q12809 whole entry): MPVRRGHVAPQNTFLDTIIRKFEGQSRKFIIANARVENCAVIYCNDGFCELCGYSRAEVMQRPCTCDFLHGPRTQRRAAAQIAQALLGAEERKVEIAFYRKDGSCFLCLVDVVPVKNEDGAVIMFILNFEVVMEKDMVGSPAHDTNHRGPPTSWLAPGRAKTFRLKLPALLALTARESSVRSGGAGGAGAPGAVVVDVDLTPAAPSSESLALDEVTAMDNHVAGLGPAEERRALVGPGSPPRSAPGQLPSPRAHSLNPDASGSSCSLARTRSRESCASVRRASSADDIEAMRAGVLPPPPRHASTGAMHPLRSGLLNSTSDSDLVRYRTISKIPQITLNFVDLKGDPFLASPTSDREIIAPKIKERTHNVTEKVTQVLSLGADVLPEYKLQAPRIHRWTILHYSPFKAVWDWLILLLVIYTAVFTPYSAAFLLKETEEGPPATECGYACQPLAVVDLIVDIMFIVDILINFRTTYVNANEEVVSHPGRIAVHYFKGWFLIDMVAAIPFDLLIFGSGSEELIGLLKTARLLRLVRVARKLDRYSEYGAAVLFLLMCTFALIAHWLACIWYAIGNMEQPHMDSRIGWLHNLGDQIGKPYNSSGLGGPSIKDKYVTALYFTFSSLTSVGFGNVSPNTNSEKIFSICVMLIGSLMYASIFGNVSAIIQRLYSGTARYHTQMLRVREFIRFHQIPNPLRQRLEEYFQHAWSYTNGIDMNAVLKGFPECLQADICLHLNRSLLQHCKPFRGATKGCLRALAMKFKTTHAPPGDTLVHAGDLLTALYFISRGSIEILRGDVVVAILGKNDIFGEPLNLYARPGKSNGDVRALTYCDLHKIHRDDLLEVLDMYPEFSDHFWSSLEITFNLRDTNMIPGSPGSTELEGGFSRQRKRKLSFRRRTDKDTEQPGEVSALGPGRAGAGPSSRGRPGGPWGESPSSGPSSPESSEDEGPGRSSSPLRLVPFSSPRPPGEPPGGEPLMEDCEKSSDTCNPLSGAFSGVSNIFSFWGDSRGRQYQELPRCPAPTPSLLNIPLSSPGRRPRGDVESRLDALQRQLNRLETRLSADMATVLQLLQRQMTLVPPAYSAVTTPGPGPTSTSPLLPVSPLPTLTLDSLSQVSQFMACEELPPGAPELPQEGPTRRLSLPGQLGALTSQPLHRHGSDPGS

COc1ccc2[nH]cc(CCN(C)C)c2c1 [Compound 5-MeO-DMT, 5-methoxy-N,N-dimethyltryptamine]
AUC0-Tlast [SE] [1, 4]: 53.2 [15.9] h*ng/mL | AUCINF—obs [1, 4]: (53.7) h*ng/mL | Cmax [SE] [1, 4]: 186 [98.7] ng/mL | Tmax [1, 4]: 9.96 min | AUC0-Tlast [SE] [1, 5]: 39.9 [7.35] h*ng/mL | AUCINF—obs [1, 5]: (40.1) h*ng/mL | Cmax [SE] [1, 5]: 191 [45.6] ng/mL | AUC0-Tlast [SE] [1, 6]: 63.8 [4.55] h*ng/mL | AUCINF—obs [1, 6]: (64.0) h*ng/mL | Cmax [SE] [1, 6]: 645 [106] ng/mL | t1/2 [1, 6]: 6.78 min | AUC0-Tlast [SE] [1, 7]: 114 [13.8] h*ng/mL | AUCINF—obs [1, 7]: (115) h*ng/mL | Cmax [SE] [1, 7]: 627 [102] ng/mL | AUC0-Tlast [SE] [1, 8]: 198 [15.2] h*ng/mL | AUCINF—obs [1, 8]: (198) h*ng/mL | Cmax [SE] [1, 8]: 679 [162] ng/mL | AUC0-Tlast [SE] [1, 9]: 420 [62.1] h*ng/mL | AUCINF—obs [1, 9]: (421) h*ng/mL | Cmax [SE] [1, 9]: 4190 [1040] ng/mL | t1/2 [1, 9]: 7.5 min | AUC0-Tlast [SE] [1, 10]: 169 [21.2] h*ng/mL | AUCINF—obs [1, 10]: (169) h*ng/mL | Cmax [SE] [1, 10]: 795 [115] ng/mL | AUC0-Tlast [SE] [1, 11]: 133 [57.2] h*ng/mL | AUCINF—obs [1, 11]: (133) h*ng/mL | Cmax [SE] [1, 11]: 1200 [857] ng/mL | AUC0-Tlast [SE] [1, 12]: 228 [49.7] h*ng/mL | AUCINF—obs [1, 12]: (228) h*ng/mL | Cmax [SE] [1, 12]: 1310 [802] ng/mL | t1/2 [1, 12]: 9.36 min | AUC0-Tlast [SE] [1, 13]: 1030 [114] h*ng/mL | AUCINF—obs [1, 13]: (1040) h*ng/mL | Cmax [SE] [1, 13]: 7010 [1010] ng/mL | AUC0-Tlast [SE] [1, 14]: 155 [53.8] h*ng/mL | AUCINF—obs [1, 14]: (156) h*ng/mL | Cmax [SE] [1, 14]: 870 [361] ng/mL | t1/2 [1, 14]: 7.8 min | AUC0-Tlast [SE] [1, 15]: 391 [228] h*ng/mL | AUCINF—obs [1, 15]: (392) h*ng/mL | Cmax [SE] [1, 15]: 3290 [2510] ng/mL | t1/2 [1, 15]: 6.96 min | AUC0-Tlast [2, 16]: 104 ng·h/mL | AUCINF—obs [2, 16]: 106 ng·h/mL | t1/2 [2, 16]: 18.7 min | AUC0-Tlast [2, 17]: 77.9 ng·h/mL | AUCINF—obs [2, 17]: 80.9 ng·h/mL | t1/2 [2, 17]: 34.3 min | AUC0-Tlast [2, 18]: 86.4 ng·h/mL | AUCINF—obs [2, 18]: 95.9 ng·h/mL | Cmax [2, 18]: 196 ng/mL | AUC0-Tlast [2, 19]: 70.6 ng·h/mL | AUCINF—obs [2, 19]: 77.7 ng·h/mL | Cmax [2, 19]: 285 ng/mL | AUC0-Tlast [2, 20]: 152 ng·h/mL | Cmax [2, 20]: 300 ng/mL | t1/2 [2, 20]: 35.7 min | t1/2 ([2]; intranasal 0.8 mg/kg/day, Day 14, Female): 95.4 min | AUC0-Tlast [2, 21]: 298 ng·h/mL | AUCINF—obs [2, 21]: 322 ng·h/mL | Cmax [2, 21]: 411 ng/mL | t1/2 [2, 21]: 79.2 min | Inhibition of hERG potassium ion current [3]: 77.8±7.4%
